From patent US10316056B2, “Chemical compounds and use thereof for improving muscular quality” (BIOPHYTIS, priority 2014, dated 2019)

Test system: myostatin gene expression in C2C12 cells
Assay: Inhibition of myostatin expression in C2C12 cells (qPCR)
Assay type: cell-based
Details: Mus musculus, percentage myostatin gene expression in cells in contact with the compounds related to control cells, C2C12, 6 h
Procedure: After several experiments in which the C2C12 cells differentiated into myotubes were incubated in the presence of IGF-1 or 20E for 2 h 30 or 6 h, two screening tests were developed. Thus, the phosphorylation of the S6 protein kinase and the expression of the myostatin gene were studied in order to determine their modulation by a growth hormone or an ecdysone and to characterize these modulations from a statistical point of view. The C2C12 myoblast cells (ATCC CRL-1772) are seeded into 24-well plates at a density of 30 000 cells per well and cultured in a DMEM medium containing glucose in a proportion of 4.5 g/l and supplemented with fetal calf serum (10%) and with antibiotics (penicillin and streptomycin). Forty-eight hours later, the myoblasts are induced to differentiate by partial serum depletion (2% instead of 10%) for 5 days. The cells are then placed in a medium which is glucose-depleted (DMEM containing 1 g/l of glucose) and serum-free in the presence of the test molecules or of the references (100 ng/ml IGF-1 or 10 μ[…]) for 6 h. At the end of the experiment, the messenger RNAs (mRNAs) are extracted using the conventional methodology based on phenol and chloroform. Briefly, the cells are lysed in a Trizol solution (Sigma T9424) containing a strong acid and phenol. The mRNAs are separated from the proteins by addition of chloroform and then centrifugation. They are then precipitated from isopropanol and then suspended at a concentration of 1 μg/μl in an […] ultrapure water. 1 μg of mRNA is then converted by reverse transcription into complementary DNA by the AMV enzyme in the presence of a primer and of a mixture of nucleotides according to the protocol given by the supplier (Applied Biosystems 4368814). […] The qPCRs are carried out on a 7900HT Fast real-Time PCR detection system (Applied Biosystems). The programming conditions are standard and consist of 1 cycle at 95° C. for 15 min, followed by 40 cycles at 95° C. for 15 s and at 60° C. for 1 min and the program ends with a melt curve step between 60° C. and 95° C. […] Fluorescent probes bind to the double-stranded DNA and are fluorescent only once bound to the DNA. A fluorescence threshold is established by the machine's program. When the amount of DNA allows the fluorescent probe to exceed this threshold, a PCR cycle number, called “Ct” for “Cycle Threshold”, is obtained. It is this value which forms the basis of the calculations to quantify the DNA relatively. A ratio R is established between the amount of starting DNA of a sample and that of a control, which has not undergone treatment (i.e. […] R=2^-ΔΔCt).

**Q.** With `COCC(=O)N(C1CC1)C(C)[C@H]1CC[C@@]2(O)C3=CC(=O)[C@@H]4C[C@@H](O)[C@@H](O)C[C@]4(C)C3CC[C@]12C` (stereo partly drawn) [Compound 54, N-cyclopropyl-2-methoxy-N-[1-[(2S,3R,5R,10R,13R,14S,17S)-2,3,14-trihydroxy-10,13-dimethyl-6-oxo-2,3,4,5,9,11,12,15,16,17-decahydro-1H-cyclopenta[a]phenanthren-17-yl]ethyl]acetacetamide] as the compound, how does the mrna remaining at 10 µM read?
**A.** The mrna remaining at 10 µM was < 70%.

**Q.** For `CC([C@H]1CC[C@@]2(O)C3=CC(=O)[C@@H]4C[C@@H](O)[C@@H](O)C[C@]4(C)C3CC[C@]12C)N(C(=O)c1ccc(C#N)cc1)C1CC1` (stereo partly drawn) [Compound 56, 4-cyano-N-cyclopropyl-N-[1-[(2S,3R,5R,10R,13R,14S,17S)-2,3,14-trihydroxy-10,13-dimethyl-6-oxo-2,3,4,5,9,11,12,15,16,17-decahydro-1H-cyclopenta[a]phenanthren-17-yl]ethyl]benzamide], which mrna remaining at 10 µM is on record?
**A.** Its mrna remaining at 10 µM is 71 to 85%.

**Q.** How did the mrna remaining at 10 µM turn out when `COCCN(C(=O)N1CCOCC1)C(C)[C@H]1CC[C@@]2(O)C3=CC(=O)[C@@H]4C[C@@H](O)[C@@H](O)C[C@]4(C)C3CC[C@]12C` (stereo partly drawn) [Compound 57, N-(2-methoxyethyl)-N-[1-[(2S,3R,5R,10R,13R,14S,17S)-2,3,14-trihydroxy-10,13-dimethyl-6-oxo-2,3,4,5,9,11,12,15,16,17-decahydro-1H-cyclopenta[a]phenanthren-17-yl]ethyl]morpholine-4-carboxamide] was run?
**A.** The mrna remaining at 10 µM was 71 to 85%.

**Q.** For `COC(CN(C(=O)c1ccco1)C(C)[C@H]1CC[C@@]2(O)C3=CC(=O)[C@@H]4C[C@@H](O)[C@@H](O)C[C@]4(C)C3CC[C@]12C)OC` (stereo partly drawn) [Compound 60, N-(2,2-dimethoxyethyl)-N-[1-[(2S,3R,5R,10R,13R,14S,17S)-2,3,14-trihydroxy-10,13-dimethyl-6-oxo-2,3,4,5,9,11,12,15,16,17-decahydro-1H-cyclopenta[a]phenanthren-17-yl]ethyl]furan-2-carboxamide], which mrna remaining at 10 µM is on record?
**A.** The mrna remaining at 10 µM was 71 to 85%.

**Q.** `COC(CN(C(=O)c1cccs1)C(C)[C@H]1CC[C@@]2(O)C3=CC(=O)[C@@H]4C[C@@H](O)[C@@H](O)C[C@]4(C)C3CC[C@]12C)OC` (stereo partly drawn) [Compound 64, N-(2,2-dimethoxyethyl)-N-[1-[(2S,3R,5R,10R,13R,14S,17S)-2,3,14-trihydroxy-10,13-dimethyl-6-oxo-2,3,4,5,9,11,12,15,16,17-decahydro-1H-cyclopenta[a]phenanthren-17-yl]ethyl]thiophene-2-carboxamide] was tested. Which mrna remaining at 10 µM did it give?
**A.** The mrna remaining at 10 µM was < 70%.

**Q.** `COC(CN(C(=O)C1CC1)C(C)[C@H]1CC[C@@]2(O)C3=CC(=O)[C@@H]4C[C@@H](O)[C@@H](O)C[C@]4(C)C3CC[C@]12C)OC` (stereo partly drawn) [Compound 65, N-(2,2-dimethoxyethyl)-N-[1-[(2S,3R,5R,10R,13R,14S,17S)-2,3,14-trihydroxy-10,13-dimethyl-6-oxo-2,3,4,5,9,11,12,15,16,17-decahydro-1H-cyclopenta[a]phenanthren-17-yl]ethyl]cyclopropanecarboxamide] was tested. Which mrna remaining at 10 µM did it give?
**A.** The mrna remaining at 10 µM was < 70%.

**Q.** How did the mrna remaining at 10 µM turn out when `CC([C@H]1CC[C@@]2(O)C3=CC(=O)[C@@H]4C[C@@H](O)[C@@H](O)C[C@]4(C)C3CC[C@]12C)N(CC(F)F)C(=O)C1CC1` (stereo partly drawn) [Compound 68, N-(2,2-difluoroethyl)-N-[1-[(2S,3R,5R,10R,13R,14S,17S)-2,3,14-trihydroxy-10,13-dimethyl-6-oxo-2,3,4,5,9,11,12,15,16,17-decahydro-1H-cyclopenta[a]phenanthren-17-yl]ethyl]cyclopropanecarboxamide] was run?
**A.** Its mrna remaining at 10 µM is < 70%.

**Q.** How did the mrna remaining at 10 µM turn out when `CC([C@H]1CC[C@@]2(O)C3=CC(=O)[C@@H]4C[C@@H](O)[C@@H](O)C[C@]4(C)C3CC[C@]12C)N(CC(F)F)C(=O)OC(C)(C)C` (stereo partly drawn) [Compound 71, Tert-butyl N-(2,2-difluoroethyl)-N-[1-[(2S,3R,5R,10R,13R,14S,17S)-2,3,14-trihydroxy-10,13-dimethyl-6-oxo-2,3,4,5,9,11,12,15,16,17-decahydro-1H-cyclopenta[a]phenanthren-17-yl]ethyl]carbamate] was run?
**A.** The mrna remaining at 10 µM was < 70%.

**Q.** `CC([C@H]1CC[C@@]2(O)C3=CC(=O)[C@@H]4C[C@@H](O)[C@@H](O)C[C@]4(C)C3CC[C@]12C)N(Cc1cccnc1)C(=O)c1ccco1` (stereo partly drawn) [Compound 73, N-(3-pyridylmethyl)-N-[1-[(2S,3R,5R,10R,13R,14S,17S)-2,3,14-trihydroxy-10,13-dimethyl-6-oxo-2,3,4,5,9,11,12,15,16,17-decahydro-1H-cyclopenta(a)phenanthren-17-yl]ethyl]furan-2-carboxamide] was tested. Which mrna remaining at 10 µM did it give?
**A.** The mrna remaining at 10 µM was 71 to 85%.

**Q.** With `COCCN(C(=O)C(C)C)C(C)[C@H]1CC[C@@]2(O)C3=CC(=O)[C@@H]4C[C@@H](O)[C@@H](O)C[C@]4(C)C3CC[C@]12C` (stereo partly drawn) [Compound 75, N-(2-methoxyethyl)-2-methyl-N-[1-[(2S,3R,5R,10R,13R,14S,17S)-2,3,14-trihydroxy-10,13-dimethyl-6-oxo-2,3,4,5,9,11,12,15,16,17-decahydro-1H-cyclopenta[a]phenanthren-17-yl]ethyl]propanamide] as the compound, how does the mrna remaining at 10 µM read?
**A.** The mrna remaining at 10 µM was < 70%.

**Q.** For `COC(CN(C)C(C)[C@H]1CC[C@@]2(O)C3=CC(=O)[C@@H]4C[C@@H](O)[C@@H](O)C[C@]4(C)C3CC[C@]12C)OC` (stereo partly drawn) [Compound 79, (2S,3R,5R,10R,13R,14S,17S)-17-[1-(2,2-dimethoxyethyl(methyl)amino)ethyl]-2,3,14-trihydroxy-10,13-dimethyl-2,3,4,5,9,11,12,15,16,17-decahydro-1H-cyclopenta[a]phenanthren-6-one], which mrna remaining at 10 µM is on record?
**A.** Its mrna remaining at 10 µM is < 70%.

**Q.** For `C[C@@H]1CN(CC(=O)[C@H]2CC[C@@]3(O)C4=CC(=O)[C@@H]5C[C@@H](O)[C@@H](O)C[C@]5(C)C4CC[C@]23C)C[C@H](C)O1` (stereo partly drawn) [Compound 83, (2S,3R,5R,10R,13R,14S,17S)-17-[2-[(2S,6R)-2,6-dimethylmorpholin-4-yl]acetyl]-2,3,14-trihydroxy-10,13-dimethyl-2,3,4,5,9,11,12,15,16,17-decahydro-1H-cyclopenta[a]phenanthren-6-one], which mrna remaining at 10 µM is on record?
**A.** The mrna remaining at 10 µM was 71 to 85%.

**Q.** For `COC(CN(C)CC(=O)[C@H]1CC[C@@]2(O)C3=CC(=O)[C@@H]4C[C@@H](O)[C@@H](O)C[C@]4(C)C3CC[C@]12C)OC` (stereo partly drawn) [Compound 85, (2S,3R,5R,10R,13R,14S,17S)-17-[2-(2,2-dimethoxyethyl(methyl)amino)acetyl]-2,3,14-trihydroxy-10,13-dimethyl-2,3,4,5,9,11,12,15,16,17-decahydro-1H-cyclopenta[a]phenanthren-6-one], which mrna remaining at 10 µM is on record?
**A.** The mrna remaining at 10 µM was 71 to 85%.

**Q.** Which mrna remaining at 10 µM does the source give for `C[C@]12C[C@H](O)[C@H](O)C[C@H]1C(=O)C=C1C2CC[C@]2(C)[C@@H](C(O)CN3CCC(CCO)CC3)CC[C@@]12O` (stereo partly drawn) [Compound 99, (2S,3R,5R,10R,13R,14S,17S)-2,3,14-trihydroxy-17-[1-hydroxy-2-[4-(2-hydroxyethyl)-1-piperidyl]ethyl]-10,13-dimethyl-2,3,4,5,9,11,12,15,16,17-decahydro-1H-cyclopenta[a]phenanthren-6-one] here?
**A.** The mrna remaining at 10 µM was < 70%.

**Q.** Which mrna remaining at 10 µM does the source give for `CO/N=C1\C=C2C(CC[C@]3(C)[C@@H](/C(CN4CCOCC4)=N\OC)CC[C@@]23O)[C@@]2(C)C[C@H](O)[C@H](O)C[C@@H]12` (stereo partly drawn) [Compound 101, (2S,3R,5R,6E,10R,13R,14S,17S)-6-methoxyimino-17-(N-methoxy-C-(morpholinomethyl)carbonimidoyl)-10,13-dimethyl-2,3,4,5,9,11,12,15,16,17-decahydro-1H-cyclopenta[a]phenanthrene-2,3,14-triol] here?
**A.** Its mrna remaining at 10 µM is < 70%.
